Laboratory results as given in patent US8318769B2, “Substituted sulfonamide compounds” (Gruenethal GmbH, priority 2008, dated 2012).

Biological target: T1, bradykinin 1 receptor (B1R) of the rat (Rattus norvegicus, UniProt P97583)
T1 construct: expressed in transfected cells
T1 sequence (P97583 1-337): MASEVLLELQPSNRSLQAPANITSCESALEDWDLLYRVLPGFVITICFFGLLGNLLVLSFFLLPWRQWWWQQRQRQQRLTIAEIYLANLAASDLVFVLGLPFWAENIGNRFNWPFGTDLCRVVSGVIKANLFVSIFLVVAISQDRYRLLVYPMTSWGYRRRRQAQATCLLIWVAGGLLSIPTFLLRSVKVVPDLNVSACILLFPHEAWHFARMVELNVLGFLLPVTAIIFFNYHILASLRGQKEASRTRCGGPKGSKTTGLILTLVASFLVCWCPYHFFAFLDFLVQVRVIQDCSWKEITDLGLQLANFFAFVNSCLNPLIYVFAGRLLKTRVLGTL
Experiment: FLIPR Ca2+ assay, B1R antagonism, rat
Type: cell-based
Details: 10 μM test substance; CHO K1 cells with rat B1R gene (rB1R cells); Des-Arg9-bradykinin at EC80; % inhibition compared with the maximum achievable inhibition
Experimental: The agonistic or antagonistic action of substances can be quantified on the bradykinin 1 receptor (B1R) of the human and rat species with ectopically expressing cell lines (CHO K1 cells) and with the aid of a Ca^2+-sensitive dyestuff (Fluo-4) in a fluorescent imaging plate reader (FLIPR). The figure in % activation is based on the Ca^2+ signal after addition of Lys-Des-Arg^9-bradykinin (0.5 nM) or Des-Arg^9-bradykinin (100 nM). Antagonists lead to a suppression of the Ca^2+ inflow after addition of the agonist. % inhibition compared with the maximum achievable inhibition is stated.
The agonistic or antagonistic action of substances can be determined on the bradykinin 1 receptor (B1R) of the human and rat species with the following assay. In accordance with this assay, the Ca^2+ inflow through the channel is quantified with the aid of a Ca^2+-sensitive dyestuff (type Fluo-4, Molecular Probes Europe BV, Leiden, Holland) in a fluorescent imaging plate reader (FLIPR, Molecular Devices, Sunnyvale, USA).
Chinese hamster ovary cells (CHO K1 cells) transfected stably with the human B1R gene (hB1R cells) or the B1R gene of the rat (rB1R cells) are used. For functional studies, these cells are plated out on black 96-well plates with a clear base (BD Biosciences, Heidelberg, Germany or Greiner, Frickenhausen, Germany) in a density of 20,000-35,000 cells/well. The cells are left overnight at 37° C. and 5% CO2 in culture medium (hB1R cells: Nutrient Mixture Ham's F12, Gibco Invitrogen GmbH, Karlsruhe, Germany or DMEM, Sigma-Aldrich, Taufkirchen, Germany; rB1R cells: D-MEM/F12, Gibco Invitrogen GmbH, Karlsruhe, Germany) with 10 vol. % FBS (foetal bovine serum, Gibco Invitrogen GmbH, Karlsruhe, Germany or PAN Biotech GmbH, Aidenbach, Germany).
On the following day, the cells are loaded for 60 min at 37° C. with 2.13 μM Fluo-4 (Molecular Probes Europe BV, Leiden, Holland) in HBSS buffer (Hank's buffered saline solution, Gibco Invitrogen GmbH, Karlsruhe, Germany) with 2.5 mM probenecid (Sigma-Aldrich, Taufkirchen, Germany) and 10 mM HEPES (Sigma-Aldrich, Taufkirchen, Germany). The plates are then washed 2× with HBSS buffer, and HBSS buffer which additionally contains 0.1% BSA (bovine serum albumin; Sigma-Aldrich, Taufkirchen, Germany), 5.6 mM glucose and 0.05% gelatine (Merck KGaA, Darmstadt, Germany) is added. After a further incubation of 20 minutes at room temperature, the plates are inserted into the FLIPR for the Ca^2+ measurement.
Alternatively, the plates are washed with buffer A (15 mM HEPES, 80 mM NaCl, 5 mM KCl, 1.2 mM CaCl2, 0.7 mM MgSO4, 2 g/l glucose, 2.5 mM probenecid), buffer A is added and the plates are loaded with 2.5 μM Fluo-4 and 0.025% Pluronic F127 (Sigma-Aldrich, Taufkirchen, Germany). Thereafter, the cells are washed 2× with buffer A and incubated for 30 minutes with buffer A, which additionally contains 0.05% BSA and 0.05% gelatine, at room temperature and thereafter inserted into the FLIPR for the Ca^2+ measurement.
The Ca^2+-dependent fluorescence is measured here before and after addition of substances (λex=488 nm, λem=540 nm). Quantification is by measurement of the highest fluorescence intensity (FC, fluorescence counts) over time.
The FLIPR protocol consists of 2 additions of substance. Test substances (10 μM) are first pipetted on to the cells and the Ca^2+ inflow is compared with the control (hB1R: Lys-Des-Arg^9-bradykinin >=50 nM; rB1R: Des-Arg^9-bradykinin 10 μM). This gives the figure in % activation based on the Ca^2+ signal after addition of Lys-Des-Arg^9-bradykinin (>=50 nM) or Des-Arg^9-bradykinin (10 μM).
After incubation for 10-20 minutes, Lys-Des-Arg^9-bradykinin (hB1R) or Des-Arg^9-bradykinin (rB1R) in the concentration of the EC80 is applied and the inflow of Ca^2+ is likewise determined. Antagonists lead to a suppression of the Ca^2+ inflow. % inhibition compared with the maximum achievable inhibition is calculated. […]

| Molecule | B1R antagonism, rat [10 μM] % inhibition |
| --- | --- |
| 1-[4-pyridin-3-yl-4-(2-pyrrolidin-1-yl-ethoxy)-piperidin-1-yl]-2-[[4-[[2-(trifluoromethyl)-phenyl]sulfonyl]-3,4-dihydro-2H-[1,4]benzoxazin-3-yl]-methoxy]-ethanone [Example 110] | 75% |

Same assay, conditions: 10 μM test substance; CHO K1 cells with rat B1R gene (rB1R cells); Des-Arg9-bradykinin at EC80; % inhibition compared with the maximum achievable inhibition; 10 µM

| Molecule | B1R antagonism, rat [10 μM] % inhibition |
| --- | --- |
| COc1cc(C)c(S(=O)(=O)N2CCCCC2CCOCC(=O)N2CCC(OCCN3CCCC3)(c3cccc(F)c3)CC2)c(C)c1 (centres unmarked) [Example 126, 1-[4-(3-fluorophenyl)-4-(2-pyrrolidin-1-yl-ethoxy)-piperidin-1-yl]-2-[2-[1-[(4-methoxy-2,6-dimethyl-phenyl)sulfonyl]-piperidin-2-yl]-ethoxy]-ethanone] | 98% |
| COc1cc(C)c(S(=O)(=O)N2CCCCC2CCOCC(=O)N2CCC(OCCN3CCCC3)(c3cccnc3)CC2)c(C)c1 (centres unmarked) [Example 124, 2-[2-[1-[(4-methoxy-2,6-dimethyl-phenyl)sulfonyl]-piperidin-2-yl]-ethoxy]-1-[4-pyridin-3-yl-4-(2-pyrrolidin-1-yl-ethoxy)-piperidin-1-yl]-ethanone] | 98% |

Same assay, conditions: CHO-K1, 10 μM test substance; CHO K1 cells with rat B1R gene (rB1R cells); Des-Arg9-bradykinin at EC80; % inhibition compared with the maximum achievable inhibition; read-out: B1R antagonism, rat [10 μM] % inhibition

| Molecule | inhibition at 10 µM |
| --- | --- |
| O=C(CC1COc2ccccc2N1S(=O)(=O)c1ccc(Cl)cc1Cl)N1CCC(OCCN2CCCC2)(c2cccc(F)c2)CC1 (centres unmarked) [Example 128, 2-[4-[(2,4-dichlorophenyl)sulfonyl]-3,4-dihydro-2H-[1,4]benzoxazin-3-yl]-1-[4-(3-fluorophenyl)-4-(2-pyrrolidin-1-yl-ethoxy)-piperidin-1-yl]-ethanone] | 41% |
| Cc1cccc(Cl)c1S(=O)(=O)N1CCCCC1COCC(=O)N1CCC(OCCN2CCCC2)(c2ccc(C(F)(F)F)cc2)CC1 (centres unmarked) [Example 69, 2-[[1-[(2-chloro-6-methyl-phenyl)sulfonyl]-piperidin-2-yl]-methoxy]-1-[4-(2-pyrrolidin-1-yl-ethoxy)-4-[4-(trifluoromethyl)-phenyl]-piperidin-1-yl]-ethanone] | 97% |
| COc1cc(C)c(S(=O)(=O)N2CCCCC2CCCC(=O)N2CCC(OCCN3CCCC3)(c3ccc(C(F)(F)F)cc3)CC2)c(C)c1 (centres unmarked) [Example 79, 4-[1-[(4-methoxy-2,6-dimethyl-phenyl)sulfonyl]-piperidin-2-yl]-1-[4-(2-pyrrolidin-1-yl-ethoxy)-4-[4-(trifluoromethyl)-phenyl]-piperidin-1-yl]-butan-1-one] | 100% |
| O=C(CC1CCCCN1S(=O)(=O)c1cccc(C(F)(F)F)c1)N1CCC(OCCN2CCCC2)(c2ccc(F)cc2)CC1 (centres unmarked) [Example 72, 1-[4-(4-fluorophenyl)-4-(2-pyrrolidin-1-yl-ethoxy)-piperidin-1-yl]-2-[1-[[3-(trifluoromethyl)phenyl]sulfonyl]-piperidin-2-yl]-ethanone] | 62% |
| Cc1cc(S(=O)(=O)N2CCCCC2CCC(=O)N2CCC(OCCN3CCCC3)(c3ccc(F)cc3)CC2)c(C)cc1Cl (centres unmarked) [Example 74, 3-[1-[(4-chloro-2,5-dimethyl-phenyl)sulfonyl]-piperidin-2-yl]-1-[4-(4-fluorophenyl)-4-(2-pyrrolidin-1-yl-ethoxy)-piperidin-1-yl]-propan-1-one] | 92% |
| CS(=O)(=O)N(CCOCC(=O)N1CCC(OCCN2CCCC2)(c2cccc(F)c2)CC1)C(c1ccccc1)c1ccccc1 [Example 105, N-benzhydryl-N-[2-[2-[4-(3-fluorophenyl)-4-(2-pyrrolidin-1-yl-ethoxy)-piperidin-1-yl]-2-oxo-ethoxy]-ethyl]-methanesulfonic acid amide] | 99% |
| COc1cc(C)c(S(=O)(=O)N2CCCCC2COCC(=O)N2CCC(OCCN3CCCC3)(c3ccc(F)cc3)CC2)c(C)c1 (centres unmarked) [Example 64, 1-[4-(4-fluorophenyl)-4-(2-pyrrolidin-1-yl-ethoxy)-piperidin-1-yl]-2-[[1-[(4-methoxy-2,6-dimethyl-phenyl)sulfonyl]-piperidin-2-yl]-methoxy]-ethanone] | 98% |
| COc1cc(C)c(S(=O)(=O)N2CCCCC2CCCC(=O)N2CCC(OCCN3CCCC3)(c3ccc(F)cc3)CC2)c(C)c1 (centres unmarked) [Example 78, 1-[4-(4-fluorophenyl)-4-(2-pyrrolidin-1-yl-ethoxy)-piperidin-1-yl]-4-[1-[(4-methoxy-2,6-dimethyl-phenyl)sulfonyl]-piperidin-2-yl]-butan-1-one] | 95% |
| O=C(CCCC1CCCCN1S(=O)(=O)c1ccccc1C(F)(F)F)N1CCC(OCCN2CCCC2)(c2cccc(F)c2)CC1 (centres unmarked) [Example 86, 1-[4-(3-fluorophenyl)-4-(2-pyrrolidin-1-yl-ethoxy)-piperidin-1-yl]-4-[1-[[2-(trifluoromethyl)-phenyl]sulfonyl]-piperidin-2-yl]-butan-1-one] | 102% |
| O=C(COCC1CCc2ccccc2N1S(=O)(=O)c1ccc2ccccc2c1)N1CCC(OCCN2CCCC2)(c2cccc(F)c2)CC1 (centres unmarked) [Example 131, 1-[4-(3-fluorophenyl)-4-(2-pyrrolidin-1-yl-ethoxy)-piperidin-1-yl]-2-[[1-(naphthalen-2-ylsulfonyl)-1,2,3,4-tetrahydro-quinolin-2-yl]-methoxy]-ethanone] | 44% |
| CN(CCCC(=O)N1CCC(OCCN2CCCC2)(c2cccc(F)c2)CC1)S(=O)(=O)c1cccc(C(F)(F)F)c1 [Example 127, N-[4-[4-(3-fluorophenyl)-4-(2-pyrrolidin-1-yl-ethoxy)-piperidin-1-yl]-4-oxo-butyl]-N-methyl-3-(trifluoromethyl)-benzenesulfonic acid amide] | 49% |
| CS(=O)(=O)N(CCOCC(=O)N1CCC(OCCN2CCCC2)(c2cccnc2)CC1)C(c1ccccc1)c1ccccc1 [Example 104, N-benzhydryl-N-[2-[2-oxo-2-[4-pyridin-3-yl-4-(2-pyrrolidin-1-yl-ethoxy)-piperidin-1-yl]-ethoxy]-ethyl]-methanesulfonic acid amide] | 100% |
| O=C(CC(NS(=O)(=O)c1ccc2ccccc2c1)c1ccccc1)N1CCC(OCCN2CCCC2)(c2ccc(C(F)(F)F)cc2)CC1 (centres unmarked) [Example 77, N-[3-oxo-1-phenyl-3-[4-(2-pyrrolidin-1-yl-ethoxy)-4-[4-(trifluoromethyl)-phenyl]-piperidin-1-yl]-propyl]-naphthalene-2-sulfonic acid amide] | 94% |
| O=C(CC(NS(=O)(=O)c1ccc2ccccc2c1)c1ccccc1)N1CCC(OCCN2CCCC2)(c2ccc(F)cc2)CC1 (centres unmarked) [Example 76, N-[3-[4-(4-fluorophenyl)-4-(2-pyrrolidin-1-yl-ethoxy)-piperidin-1-yl]-3-oxo-1-phenyl-propyl]-naphthalene-2-sulfonic acid amide] | 90% |
